biological target: T1, GPR119 receptor (Mesocricetus auratus, UniProt A0A1U8CD06); test: cAMP assay in HIT-T15 hamster pancreatic islet cells (functional agonist activity); assay type: cell-based; settings: HIT-T15 cells endogenously expressing GPR119; 30 min at 25° C.; intracellular cAMP
T1 construct: which endogenously express the GPR119 receptor; host or cells: HIT-T15 hamster pancreatic islet cells
T1 sequence (A0A1U8CD06 1-334): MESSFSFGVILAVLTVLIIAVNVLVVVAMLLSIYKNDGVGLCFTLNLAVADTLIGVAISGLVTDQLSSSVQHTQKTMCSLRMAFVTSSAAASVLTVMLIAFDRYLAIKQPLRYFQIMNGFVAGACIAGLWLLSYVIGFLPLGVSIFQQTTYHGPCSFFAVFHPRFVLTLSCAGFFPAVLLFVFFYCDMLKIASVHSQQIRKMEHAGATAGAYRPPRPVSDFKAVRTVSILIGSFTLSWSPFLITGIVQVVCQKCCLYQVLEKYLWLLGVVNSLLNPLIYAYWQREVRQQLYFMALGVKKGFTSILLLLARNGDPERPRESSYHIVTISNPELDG
Method in brief: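 HIT-T15 cells (endogenous GPR119), 9000/well, exposed to agonist 30 min at 25° C with 0.5 mM IBMX and 0.5 mg/ml BSA. Lysate cAMP measured by chemiluminescent competitive immunoassay; EC50 from curve fit.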

EC50 [µM] | SMILES
0.19 | Cc1ncccc1Oc1ncnc2c1cnn2C1CCN(C(=O)OCC(C)C)CC1 [Example 107, 4-[4-(2-Methyl-pyridin-3-yloxy)-pyrazolo[3,4-d]pyrimidin-1-yl]-piperidine-1-carboxylic acid isobutyl ester]
0.75 | CC(C)(C)OC(=O)N1CCC(n2ncc3c(Oc4ccc5c(c4)C=CS5(=O)=O)ncnc32)CC1 [Example 78, 4-[4-(1,1-Dioxo-1H-1λ^6-benzo[b]thiophen-5-yloxy)-pyrazolo[3,4-d]pyrimidin-1-yl]-piperidine-1-carboxylic acid tert-butyl ester]
0.82 | CC(C)(C)OC(=O)N1CCC(n2ncc3c(Oc4ccc5c(c4)CCS5(=O)=O)ncnc32)CC1 [Example 79, 4-[4-(1,1-Dioxo-2,3-dihydro-1H-1λ^6-benzo[b]thiophen-5-yloxy)-pyrazolo[3,4-d]pyrimidin-1-yl]-piperidine-1-carboxylic acid tert-butyl ester]
0.49 | CC(C)(C)OC(=O)N1CCC(n2ncc3c(Oc4ccc(Cl)cc4Cl)ncnc32)CC1 [Example 38, 4-[4-(2,4-Dichloro-phenoxy)-pyrazolo[3,4-d]pyrimidin-1-yl]-piperidine-1-carboxylic acid tert-butyl ester]
0.14 | CS(=O)(=O)c1ccc(Oc2ncnc3c2cnn3C2CCN(Cc3ccc4c(c3)OC(F)(F)O4)CC2)cc1 [Example 163, 1-[1-(2,2-Difluoro-benzo[1,3]dioxol-5-ylmethyl)-piperidin-4-yl]-4-(4-methanesulfonyl-phenoxy)-1H-pyrazolo[3,4-d]pyrimidine]
1.1 | Cc1ncccc1Oc1ncnc2c1cnn2C1CCN(C(=O)Oc2ccccc2)CC1 [Example 122, 4-[4-(2-Methyl-pyridin-3-yloxy)-pyrazolo[3,4-d]pyrimidin-1-yl]-piperidine-1-carboxylic acid phenyl ester]
0.26 | Cc1ncccc1Oc1ncnc2c1cnn2C1CCN(C(=O)OC2CCCC2)CC1 [Example 121, 4-[4-(2-Methyl-pyridin-3-yloxy)-pyrazolo[3,4-d]pyrimidin-1-yl]-piperidine-1-carboxylic acid cyclopentyl ester]
0.05 | CC(C)(OC(=O)N1CCC(n2ncc3c(Oc4ccc(S(C)(=O)=O)cc4)ncnc32)CC1)C(F)(F)F [Example 111, 4-[4-(4-Methanesulfonyl-phenoxy)-pyrazolo[3,4-d]pyrimidin-1-yl]-piperidine-1-carboxylic acid 2,2,2-trifluoro-1,1-dimethyl-ethyl ester]
0.095 | CC(C)(C)OC(=O)N1CCC(n2ncc3c(Oc4ccc(S(C)(=O)=O)c(F)c4)ncnc32)CC1 [Example 61, 4-[4-(3-Fluoro-4-methanesulfonyl-phenoxy)-pyrazolo[3,4-d]pyrimidin-1-yl]-piperidine-1-carboxylic acid tert-butyl ester]
0.17 | CCOc1ccc(Oc2ncnc3c2cnn3C2CCN(C(=O)OC3CCCC3)CC2)c(F)c1 [Example 117, 4-[4-(4-Ethoxy-2-fluoro-phenoxy)-pyrazolo[3,4-d]pyrimidin-1-yl]-piperidine-1-carboxylic acid cyclopentyl ester]
0.045 | CC(C)(C)OC(=O)N1CCCC(n2ncc3c(Oc4ccc(S(C)(=O)=O)cc4)ncnc32)C1 (single isomer, unassigned) [Example 88]
0.26 | CCOc1ccc(Oc2ncnc3c2cnn3C2CCN(C(=O)C3CCCC3)CC2)c(F)c1 [Example 147, Cyclopentyl-{4-[4-(4-ethoxy-2-fluoro-phenoxy)-pyrazolo[3,4-d]pyrimidin-1-yl]-piperidin-1-yl}-methanone]
0.43 | CC(C)c1noc(N2CCC(n3ncc4c(Oc5ccc(S(C)(=O)=O)cc5)ncnc43)CC2)n1 [Example 126, 1-[1-(3-Isopropyl-[1,2,4]oxadiazol-5-yl)-piperidin-4-yl]-4-(4-methanesulfonyl-phenoxy)-1H-pyrazolo[3,4-d]pyrimidine]
0.44 | CC(C)CCC(=O)N1CCC(n2ncc3c(Oc4ccc(S(C)(=O)=O)cc4)ncnc32)CC1 [Example 143, 1-{4-[4-(4-Methanesulfonyl-phenoxy)-pyrazolo[3,4-d]pyrimidin-1-yl]-piperidin-1-yl}-4-methylpentan-1-one]
1.7 | CS(=O)(=O)c1ccc(Oc2ncnc3c2cnn3C2CCN(C(=O)C(F)(F)F)CC2)cc1 [Example 148, 2,2,2-Trifluoro-1-{4-[4-(4-methanesulfonyl-phenoxy)-pyrazolo[3,4-d]pyrimidin-1-yl]-piperidin-1-yl}-ethanone]
0.42 | COC(=O)c1ccc(Oc2ncnc3c2cnn3C2CCN(C(=O)OC(C)(C)C)CC2)c(F)c1 [Example 63, 4-[4-(2-Fluoro-4-methoxycarbonyl-phenoxy)-pyrazolo[3,4-d]pyrimidin-1-yl]-piperidine-1-carboxylic acid tert-butyl ester]

EC50 [µM] | SMILES
0.096 | Cc1nc(S(C)(=O)=O)ccc1Oc1ncnc2c1cnn2C1CCN(C(=O)OC(C)(C)C)CC1 [Example 98, 4-[4-(6-Methanesulfonyl-2-methyl-pyridin-3-yloxy)-pyrazolo[3,4-d]pyrimidin-1-yl]-piperidine-1-carboxylic acid tert-butyl ester]
0.53 | Cc1nc(Cl)ccc1Oc1ncnc2c1cnn2C1CCN(C(=O)OC(C)(C)C)CC1 [Example 97, 4-[4-(6-Chloro-2-methyl-pyridin-3-yloxy)-pyrazolo[3,4-d]pyrimidin-1-yl]-piperidine-1-carboxylic acid tert-butyl ester]
0.42 | C[S+]([O-])c1ccc(Oc2ncnc3c2cnn3C2CCN(C(=O)OC(C)(C)C)CC2)cc1 (stereo not shown) [Example 58, 4-[4-(4-Methanesulfinyl-phenoxy)-pyrazolo[3,4-d]pyrimidin-1-yl]-piperidine-1-carboxylic acid tert-butyl ester]
0.018 | CCOc1ccc(Oc2ncnc3c2cnn3C2CCN(C(=O)OC(C)(C)C)CC2)c(F)c1 [Example 43, 4-[4-(4-Ethoxy-2-fluoro-phenoxy)-pyrazolo[3,4-d]pyrimidin-1-yl]-piperidine-1-carboxylic acid tert-butyl ester]
3.4 | CC(C)(C)OC(=O)N1CCC(n2ncc3c(Oc4ccccc4C#N)nc(N)nc32)CC1 [Example 174, 4-[6-Amino-4-(2-cyano-phenoxy)-pyrazolo[3,4-d]pyrimidin-1-yl]-piperidine-1-carboxylic acid tert-butyl ester]
0.024 | CC(C)(C)OC(=O)N1CCC(n2ncc3c(Oc4ccc(S(C)(=O)=O)cc4)nc(Cl)nc32)CC1 [Example 172, 4-[6-Chloro-4-(4-methanesulfonyl-phenoxy)-pyrazolo[3,4-d]pyrimidin-1-yl]-piperidine-1-carboxylic acid tert-butyl ester]
0.061 | CC(C)(C)OC(=O)N1CCC(n2ncc3c(Oc4ccccc4C#N)ncnc32)CC1 [Example 45, 4-[4-(2-Cyano-phenoxy)-pyrazolo[3,4-d]pyrimidin-1-yl]-piperidine-1-carboxylic acid tert-butyl ester]
0.4 | CC(C)CS(=O)(=O)N1CCC(n2ncc3c(Oc4ccc(S(C)(=O)=O)cc4)ncnc32)CC1 [Example 171, 4-(4-Methanesulfonyl-phenoxy)-1-[1-(2-methyl-propane-1-sulfonyl)-piperidin-4-yl]-1H-pyrazolo[3,4-d]pyrimidine]
0.49 | CC(C)(C)OC(=O)N1CCC(n2ncc3c(Oc4cc(F)cc(C(F)(F)F)c4)ncnc32)CC1 [Example 53, 4-[4-(3-Fluoro-5-trifluoromethyl-phenoxy)-pyrazolo[3,4-d]pyrimidin-1-yl]-piperidine-1-carboxylic acid tert-butyl ester]
0.47 | Cn1nc(Oc2ncnc3c2cnn3C2CCN(C(=O)OC(C)(C)C)CC2)ccc1=O [Example 102, 4-[4-(1-Methyl-6-oxo-1,6-dihydro-pyridazin-3-yloxy)-pyrazolo[3,4-d]pyrimidin-1-yl]-piperidine-1-carboxylic acid tert-butyl ester]
0.2 | CS(=O)(=O)c1ccc(Oc2ncnc3c2cnn3C2CCN(Cc3ccc(F)cc3)CC2)cc1 [Example 159, 1-[1-(4-Fluoro-benzyl)-piperidin-4-yl]-4-(4-methanesulfonyl-phenoxy)-1H-pyrazolo[3,4-d]pyrimidine]
2.2 | Cc1ncccc1Nc1ncnc2c1cnn2C1CCN(C(=O)OC(C)(C)C)CC1 [Example 7, 4-[4-(2-Methyl-pyridin-3-ylamino)-pyrazolo[3,4-d]pyrimidin-1-yl]-piperidine-1-carboxylic acid tert-butyl ester]
1.8 | CC(C)(C)OC(=O)N1CCC(n2ncc3c(Oc4ccc(OC(F)(F)F)cc4)ncnc32)CC1 [Example 42, 4-[4-(4-Trifluoromethoxy-phenoxy)-pyrazolo[3,4-d]pyrimidin-1-yl]-piperidine-1-carboxylic acid tert-butyl ester]
0.16 | CS(=O)(=O)c1ccc(Oc2ncnc3c2cnn3C2CCN(C(=O)c3nc4ccccc4s3)CC2)cc1 [Example 156, Benzothiazol-2-yl-{4-[4-(4-methanesulfonyl-phenoxy)-pyrazolo[3,4-d]pyrimidin-1-yl]-piperidin-1-yl}-methanone]
2.7 | Cc1ncccc1Oc1ncnc2c1cnn2C1CCN(C(=O)Oc2ccc([N+](=O)[O-])cc2)CC1 [Example 123, 4-[4-(2-Methyl-pyridin-3-yloxy)-pyrazolo[3,4-d]pyrimidin-1-yl]-piperidine-1-carboxylic acid 4-nitro-phenyl ester]

From patent publication US8188098B2, “GPR119 receptor agonists” (Hoffmann-La Roche Inc., priority 2008, dated 2012)
